Data reported in publication PMC12299554 (Pharmaceuticals, 2025).

Assays:
[1] = target: T1, AChE (EC 3.1.1.7, Electrophorus electricus, Type V-S) (Electrophorus electricus, UniProt O42275); experiment: biochemical; conditions: mean of three measurements ± standard deviation
T1 construct: purchased Sigma-Aldrich Type V-S
Procedure: All measurements were conducted in triplicate. […] The selectivity index is calculated as IC50(AChE)/IC50(BChE).

[2] = target: BChE (EC 3.1.1.8, equine serum) (Equus caballus, UniProt P81908); experiment: biochemical
BChE (EC 3.1.1.8, equine serum), sequence (P81908 whole entry): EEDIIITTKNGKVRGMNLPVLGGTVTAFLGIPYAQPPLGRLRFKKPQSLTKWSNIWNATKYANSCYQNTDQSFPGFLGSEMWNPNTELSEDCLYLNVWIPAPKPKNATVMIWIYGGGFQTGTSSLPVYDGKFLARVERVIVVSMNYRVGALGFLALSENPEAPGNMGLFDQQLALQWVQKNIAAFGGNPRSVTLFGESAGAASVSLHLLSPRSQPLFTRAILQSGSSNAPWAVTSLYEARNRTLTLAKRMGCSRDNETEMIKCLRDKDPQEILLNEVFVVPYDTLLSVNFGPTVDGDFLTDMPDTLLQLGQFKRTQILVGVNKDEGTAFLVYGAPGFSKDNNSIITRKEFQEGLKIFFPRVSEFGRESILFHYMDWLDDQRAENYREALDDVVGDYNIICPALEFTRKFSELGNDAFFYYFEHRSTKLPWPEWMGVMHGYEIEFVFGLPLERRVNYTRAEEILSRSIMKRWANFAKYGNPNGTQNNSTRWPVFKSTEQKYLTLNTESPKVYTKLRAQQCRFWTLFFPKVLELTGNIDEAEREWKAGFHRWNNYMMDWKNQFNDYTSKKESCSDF

[3] = test system: LPS-stimulated TNF-α production in human peripheral blood mononuclear cells (PBMCs); experiment: Inhibition of LPS-stimulated TNF-α production in PBMCs (ELISA); conditions: for Inhibition of LPS-stimulated TNF-α production (in words): human PBMCs, three-fold dilutions starting at 100 µM; for IC50: Homo sapiens, PBMC, 24 h, read-out: IC50 of LPS-stimulated TNF-α production
PBMCs = experiment: Cell viability of LPS-stimulated PBMCs (CellTiter-Glo); type: cell-based; conditions: human PBMCs, 24 h; three-fold dilutions starting at 100 µM

T1 sequence (O42275 24-633): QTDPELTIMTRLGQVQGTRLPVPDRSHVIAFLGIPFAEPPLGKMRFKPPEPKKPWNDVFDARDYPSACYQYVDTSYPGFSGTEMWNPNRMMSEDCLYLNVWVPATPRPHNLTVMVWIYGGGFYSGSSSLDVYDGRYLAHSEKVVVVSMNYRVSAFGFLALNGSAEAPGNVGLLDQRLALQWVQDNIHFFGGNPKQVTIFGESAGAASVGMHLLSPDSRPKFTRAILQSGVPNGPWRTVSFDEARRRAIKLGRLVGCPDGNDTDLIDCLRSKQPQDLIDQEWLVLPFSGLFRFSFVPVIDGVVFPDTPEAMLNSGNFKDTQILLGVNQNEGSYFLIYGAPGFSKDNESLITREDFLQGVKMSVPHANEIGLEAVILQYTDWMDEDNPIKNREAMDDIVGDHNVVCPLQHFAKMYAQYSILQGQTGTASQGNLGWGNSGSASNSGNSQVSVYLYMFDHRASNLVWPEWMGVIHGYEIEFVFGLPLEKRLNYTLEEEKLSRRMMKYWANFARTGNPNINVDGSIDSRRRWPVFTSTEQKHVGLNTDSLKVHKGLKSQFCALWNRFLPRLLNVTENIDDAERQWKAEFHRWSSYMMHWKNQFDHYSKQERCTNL

Row | Structure (SMILES) | IC50 [1] | IC50 [2] | Inhibition of LPS-stimulated TNF-α production (in words) [3] | IC50 [3] | Effect on cell viability (in words) (PBMCs)
1 | O=[N+]([O-])c1ccc(C[n+]2nn(Cc3cccc(Cl)c3)c3c4ccsc4ccc32)cc1.[Br-] [Compound 7, 1-(3-chlorobenzyl)-3-(4-nitrobenzyl)-1H-thieno[3′,2′:3,4]benzo[1,2-d][1,2,3]triazol-3-ium bromide] | 11.4 ± 0.39 µM | 10 ± 1.64 µM | did not inhibit TNF-α production at any tested concentrations | – | –
2 | C[C@@H]1C[C@H]2[C@@H]3CCC4=CC(=O)C=C[C@]4(C)[C@@]3(F)[C@@H](O)C[C@]2(C)[C@@]1(O)C(=O)CO [dexamethasone, reference compound] | – | – | – | 0.0046 µM | –
3 | COc1ccc(Cn2n[n+](Cc3ccc(Cl)cc3)c3ccc4sccc4c32)cc1 [Compound 13, 3-(4-chlorobenzyl)-1-(4-methoxybenzyl)-1H-thieno[3′,2′:3,4]benzo[1,2-d][1,2,3]triazol-3-ium bromide] | 7.4 ± 0.94 µM | 4.05 ± 1.05 µM | – | – | –
4 | Cc1ccc(C[n+]2nn(Cc3cccc(F)c3)c3c4ccsc4ccc32)cc1.[Br-] [Compound 9, 1-(3-fluorobenzyl)-3-(4-methylbenzyl)-1H-thieno[3′,2′:3,4]benzo[1,2-d][1,2,3]triazol-3-ium bromide] | 4.8 ± 0.71 µM | 0.363 ± 0.038 µM | – | 0.66 µM | affected cell viability at the three highest concentrations tested
5 | Clc1ccc(Cn2n[n+](Cc3ccc(Cl)cc3)c3ccc4sccc4c32)cc1.[Br-] [Compound 2, 1,3-bis(4-chlorobenzyl)-1H-thieno[3′,2′:3,4]benzo[1,2-d][1,2,3]triazol-3-ium bromide] | 10.7 ± 1.46 µM | 4.99 ± 1.1 µM | did not inhibit TNF-α production | – | decreased cell viability
6 | C=CCn1n[n+](Cc2ccccc2)c2ccc3sccc3c21 [Compound 14, 1-allyl-3-benzyl-1H-thieno[3′,2′:3,4]benzo[1,2-d][1,2,3]triazol-3-ium bromide] | 2.13 ± 0.13 µM | 0.098 ± 0.018 µM | – | – | –
7 | CC=Cn1n[n+](Cc2ccccc2)c2ccc3sccc3c21 [Compound 15, 3-benzyl-1-(prop-1-en-1-yl)-1H-thieno[3′,2′:3,4]benzo[1,2-d][1,2,3]triazol-3-ium bromide] | 3.62 ± 0.42 µM | 0.732 ± 0.137 µM | – | – | –
8 | Clc1ccc(C[n+]2nn(Cc3cccc(Cl)c3)c3c4ccsc4ccc32)cc1.[Br-] [Compound 6, 1-(3-chlorobenzyl)-3-(4-chlorobenzyl)-1H-thieno[3′,2′:3,4]benzo[1,2-d][1,2,3]triazol-3-ium bromide] | 12.9 ± 0.87 µM | 0.96 ± 0.14 µM | did not inhibit TNF-α production at any tested concentrations | – | –
9 | Cc1cccc(Cn2n[n+](Cc3ccc(Cl)cc3)c3ccc4sccc4c32)c1 [Compound 11, 3-(4-chlorobenzyl)-1-(3-methylbenzyl)-1H-thieno[3′,2′:3,4]benzo[1,2-d][1,2,3]triazol-3-ium bromide] | 6.23 ± 0.58 µM | 1.11 ± 0.77 µM | – | – | –
10 | Fc1cccc(Cn2n[n+](Cc3ccc(Cl)cc3)c3ccc4sccc4c32)c1 [Compound 10, 3-(4-chlorobenzyl)-1-(3-fluorobenzyl)-1H-thieno[3′,2′:3,4]benzo[1,2-d][1,2,3]triazol-3-ium bromide] | 9.96 ± 0.42 µM | 2.45 ± 0.43 µM | – | – | –
11 | Cc1ccc(C[n+]2nn(Cc3cccc(Cl)c3)c3c4ccsc4ccc32)cc1.[Br-] [Compound 5, 1-(3-chlorobenzyl)-3-(4-methylbenzyl)-1H-thieno[3′,2′:3,4]benzo[1,2-d][1,2,3]triazol-3-ium bromide] | 55.6 ± 2.36 µM | 8.13 ± 0.83 µM | did not inhibit TNF-α production | – | decreased cell viability
12 | Cc1cc2c(ccc3c2n(Cc2ccc(Cl)cc2)n[n+]3Cc2ccc(Cl)cc2)s1.[Br-] [Compound 3, 1,3-bis(4-chlorobenzyl)-7-methyl-1H-thieno[3′,2′:3,4]benzo[1,2-d][1,2,3]triazol-3-ium bromide] | 8.89 ± 3.26 µM | 7.6 ± 0.82 µM | did not inhibit TNF-α production at any tested concentrations | – | –
13 | Cc1ccc(C[n+]2nn(Cc3ccc(Cl)cc3)c3c4ccsc4ccc32)cc1.[Br-] [Compound 1, 1-(4-chlorobenzyl)-3-(4-methylbenzyl)-1H-thieno[3′,2′:3,4]benzo[1,2-d][1,2,3]triazol-3-ium bromide] | 12.7 ± 1.85 µM | 2.55 ± 0.58 µM | did not inhibit TNF-α production | – | decreased cell viability
14 | COc1ccc(Cn2n[n+](Cc3ccc(C)cc3)c3ccc4sccc4c32)cc1 [Compound 12, 1-(4-methoxybenzyl)-3-(4-methylbenzyl)-1H-thieno[3′,2′:3,4]benzo[1,2-d][1,2,3]triazol-3-ium bromide] | 11.8 ± 2.15 µM | 3.98 ± 1.25 µM | – | – | –
15 | Fc1cccc(Cn2n[n+](Cc3ccccc3)c3ccc4sccc4c32)c1.[Br-] [Compound 8, 3-benzyl-1-(3-fluorobenzyl)-1H-thieno[3′,2′:3,4]benzo[1,2-d][1,2,3]triazol-3-ium bromide] | 22.2 ± 2.83 µM | 4.52 ± 0.17 µM | did not inhibit TNF-α production | – | decreased cell viability
16 | Clc1cccc(Cn2n[n+](Cc3ccccc3)c3ccc4sccc4c32)c1.[Br-] [Compound 4, 3-benzyl-1-(3-chlorobenzyl)-1H-thieno[3′,2′:3,4]benzo[1,2-d][1,2,3]triazol-3-ium bromide] | – | – | did not inhibit TNF-α production | – | decreased cell viability
